Source: PMC6675120, “Potent and selective inhibitors for M32 metallocarboxypeptidases identified from high-throughput screening of anti-kinetoplastid chemical boxes” (PLoS Neglected Tropical Diseases, 2019)

Experiments:
[1] = target: TbMCP-1 (Trypanosoma brucei, UniProt Q386R0); test: Continuous fluorogenic (FRET) TbMCP-1 assay with Abz-RFFK(Dnp)-OH, primary and secondary screening; assay type: biochemical; details: for TbMCP-1 Hill Slope: four-parameter Hill fit of dose-response curve; for TbMCP-1 2º/1º ratio: secondary (31,5 µM) / primary (25 µM) inhibition; for TbMCP-1 Primary screening Inhibition (%): single inhibitor concentration 25 µM; for TbMCP-1 Secondary screening Inhibition (%): single inhibitor concentration 31,5 µM
Chain of TbMCP-1 (Q386R0 entry or part of it): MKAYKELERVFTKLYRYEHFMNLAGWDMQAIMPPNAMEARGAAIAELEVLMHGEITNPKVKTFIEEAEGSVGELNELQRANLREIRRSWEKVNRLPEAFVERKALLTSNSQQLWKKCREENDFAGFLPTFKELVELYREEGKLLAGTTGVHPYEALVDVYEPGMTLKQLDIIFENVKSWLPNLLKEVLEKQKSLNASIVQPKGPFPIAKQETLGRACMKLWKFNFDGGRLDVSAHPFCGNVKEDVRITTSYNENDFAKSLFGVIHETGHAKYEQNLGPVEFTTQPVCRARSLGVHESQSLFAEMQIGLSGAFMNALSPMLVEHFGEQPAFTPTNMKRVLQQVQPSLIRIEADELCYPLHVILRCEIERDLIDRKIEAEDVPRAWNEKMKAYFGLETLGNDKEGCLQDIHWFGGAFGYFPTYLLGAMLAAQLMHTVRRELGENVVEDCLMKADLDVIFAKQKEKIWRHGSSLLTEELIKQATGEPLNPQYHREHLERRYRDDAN
Protocol: (§1) TcMCP-1 (MEROPS ID: M32.003) and TbMCP-1 were expressed as GST fusion proteins in E. coli BL21 (DE3) Codon Plus and purified as previously described.
(§2) TbMCP-1 and TcMCP-1 activities were assayed fluorometrically with Abz-RFFK(Dnp)-OH and Abz-LKFK(Dnp)-OH substrates, respectively, in 100 mM MOPS pH 7,2 containing 0,01% Triton X-100. Assays were performed in solid black 384-well plates (final reaction volume ~80 μL) and the hydrolysis of the K(Dnp)-OH group was monitored continuously at 30 °C with a Beckman Coulter DTX 880 Multimode Reader (Radnor, Pennsylvania, USA) using standard 320 nm excitation and 420 nm emission filter set.
(§3) In all cases, EDTA (final concentration 31,25 mM) was used as positive inhibition control.
(§4) Then, 40 μL of 100 mM MOPS, 0,01% Triton X-100 pH 7,2 containing TbMCP-1 (2,50 nM) or TcMCP-1 (0,34 nM) were added to each well, plates were homogenized (30 seg, orbital, medium intensity) and each well subjected to a single autofluorescence read (ex/em = 320/420 nm). Plates were incubated in darkness for 15 min at 30 °C and then 40 μL of Abz-RFFK(Dnp)-OH (4 μM) or Abz-LKFK(Dnp)-OH (0,8 μM) in assay buffer were added to each well to start the reaction. After homogenization (30 seg, orbital, medium intensity), the fluorescence of the Abz group (ortho-aminobenzoic acid) (ex/em = 320/420 nm) was acquired kinetically for each well (8 read cycles, one cycle every 300 seconds). Considering our previous experiences, the auto-fluorescent cut-off was arbitrarily set at 2x10^5 RFU to discard highly interfering compounds. All compounds were assayed in singlet (without replicates) due to the limited availability of stocks.
(§5) Raw screening measurements were used to determine the slope (dF/dt) of progression curves by linear regression for control and non-interfering compound wells. In the case of control-dependent hit selection criteria, percent inhibition percentage (%Inh) was calculated for each compound according to the following equation: Inh=100∙[1−(dF/dt^WELL−μ^C−)/(μ^C+−μ^C−)] (1) where dF/dt^WELL represents the slope of each compound well and μ^C+ and μ^C− the average of MCP (no-inhibition) and substrate (no-enzyme) controls, respectively.
(§6) To avoid any positional and/or association bias, we randomly defined the row position for each compound. One μL of compounds stock (10 mM in DMSO) and EDTA (31,25 mM) were added to the first well of column 1, followed by addition of 40 μL of 100 mM MOPS, 0,01% Triton X-100 pH 7,2 buffer. After addition of 20 μL of the same buffer to subsequent wells of the plate, 22 serial 2-fold dilutions were made horizontally. The last two positions of every row were used, alternatively, for C^+ and C^− controls to reduce any positional and/or association bias. Then, 20 μL of activity buffer containing TbMCP-1 or TcMCP-1 were added to each well, except for those corresponding to C^−; completed with 20 μL of activity buffer. After homogenization, 15 minutes of incubation at 30°C and autofluorescence measurement, the substrate (in activity buffer) was added to the previous mix. Data collection and processing were performed exactly as described above. Percentage of M32 MCPs residual activity was calculated for each condition according to the following equation: %Res.Act^MCP=100∙[(dF/dt^WELL−μ^C−)/(μ^C+−μ^C−)] (2) where dF/dt^WELL represents the slope of each compound well and μ^C+ and μ^C− the average of MCP (no-inhibition) and substrate (no-enzyme) controls, respectively.

[2] = target: TcMCP-1 (Trypanosoma cruzi, UniProt Q6ZXC0); test: Continuous fluorogenic (FRET) TcMCP-1 assay with Abz-LKFK(Dnp)-OH, primary and secondary screening; assay type: biochemical; details: for TcMCP-1 Hill Slope: four-parameter Hill fit of dose-response curve; for TcMCP-1 2º/1º ratio: secondary (31,5 µM) / primary (25 µM) inhibition; for TcMCP-1 Primary screening Inhibition (%): single inhibitor concentration 25 µM; for TcMCP-1 Secondary screening Inhibition (%): single inhibitor concentration 31,5 µM
Chain of TcMCP-1 (Q6ZXC0 entry or part of it): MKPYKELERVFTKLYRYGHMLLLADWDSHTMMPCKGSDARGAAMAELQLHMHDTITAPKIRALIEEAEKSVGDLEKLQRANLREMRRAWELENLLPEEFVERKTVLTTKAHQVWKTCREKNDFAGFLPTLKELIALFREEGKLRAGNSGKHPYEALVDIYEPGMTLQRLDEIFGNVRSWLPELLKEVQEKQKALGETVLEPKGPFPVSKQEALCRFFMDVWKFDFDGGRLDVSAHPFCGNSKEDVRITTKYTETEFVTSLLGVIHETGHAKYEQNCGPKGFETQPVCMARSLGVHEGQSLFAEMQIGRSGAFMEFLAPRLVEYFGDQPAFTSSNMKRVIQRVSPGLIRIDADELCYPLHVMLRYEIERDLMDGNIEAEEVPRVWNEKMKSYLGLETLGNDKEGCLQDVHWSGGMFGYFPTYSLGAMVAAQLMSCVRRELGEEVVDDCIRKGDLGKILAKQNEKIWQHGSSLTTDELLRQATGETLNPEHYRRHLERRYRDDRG
Protocol: as §1, §2, §3, §4, §5
as §6, with “Compounds selected from primary screening were re-tested in a dose-response manner (final concentration ranging from […] to 62,5 μM) using identical assay conditions. To” for “To”

SMILES | IC50 [1] | TbMCP-1 Hill Slope [1] | TbMCP-1 2º/1º ratio [1] | TbMCP-1 Primary screening Inhibition (%) [1] | TbMCP-1 Secondary screening Inhibition (%) [1] | IC50 [2] | TcMCP-1 Hill Slope [2] | TcMCP-1 2º/1º ratio [2] | TcMCP-1 Primary screening Inhibition (%) [2] | TcMCP-1 Secondary screening Inhibition (%) [2]
Cc1ccc2c(c1)-c1onc(C(=O)N3CCCCC3c3cccnc3)c1CO2 (stereo not shown) [TCMDC-143191] | 16.1 µM | -1,267 | 0,78 | 88,97% | 69,40% | – | – | – | – | –
CC1=C(C(=O)Nc2ccc(Cl)cc2)C(c2ccncc2)n2ncc(C(=O)Nc3ccccc3)c2N1 (stereo not shown) [TCMDC-143187] | > 60 µM | – | 0,50 | 48,70% | 24,44% | – | – | – | – | –
CC(C)Oc1cccc(N2CCC(C(=O)N3CCCN(C(C)C)CC3)CC2)c1.Cl [TCMDC-143432] | – | – | – | – | – | 26.3 µM | -0,6129 | 1,27 | 42,37% | 53,96%
Cn1ccnc1CN1CCc2[nH]cnc2C1c1ccccc1OCc1ccccc1 (stereo not shown) [TCMDC-143242] | – | – | – | – | – | 26.5 µM | -1,237 | 1,02 | 51,89% | 52,68%
CCC1Oc2cc(S(=O)(=O)N(C)CC(=O)N3CCc4ccccc4C3)c(C)cc2NC1=O (stereo not shown) [TCMDC-143332] | 23.3 µM | -1,063 | 1,03 | 55,90% | 57,63% | – | – | – | – | –
O=C(NCC1CCCCC1)c1cc(=O)c2ccccc2o1 [TCMDC-123621] | – | – | -0,05 | 44,99% | -2,11% | – | – | – | – | –
COc1cccc(-c2cc(C(F)(F)F)nc(-n3ccc([N+](=O)[O-])n3)n2)c1 [TCMDC-143105] | – | – | – | – | – | – | – | 0,34 | 52,36% | 17,76%
CC(C)N(C(=O)CN1C(=O)C(N)C(=O)N(c2ccccc2)c2ccccc21)c1ccccc1 (stereo not shown) [TCMDC-143071] | – | – | – | – | – | 38.9 µM | -1,235 | 0,63 | 45,44% | 28,65%
O=C(O)C(F)(F)F.O=C(O)C(F)(F)F.O=C1COC(c2ccccc2)(c2ccccc2)CN1C1CCN(Cc2ccc(-n3ccnc3)cc2)CC1 [TCMDC-143543] | – | – | – | – | – | > 60 µM | – | 0,72 | 43,40% | 31,11%
Cc1cc(C#N)c([N+](=O)[O-])cc1Br [TCMDC-143541] | – | – | 0,20 | 44,26% | 8,89% | – | – | – | – | –
CC(C)Oc1ccc(C(=O)Nc2ccc(N3CCOCC3)c(Cl)c2)cc1 [TCMDC-143592] | – | – | – | – | – | 27.9 µM | -0,8919 | 1,03 | 56,55% | 58,11%
O=C(c1cc2cc(Cl)ccc2[nH]1)N1CCCCC1c1cccnc1 (stereo not shown) [TCMDC-143159] | – | – | 0,25 | 52,96% | 13,07% | – | – | – | – | –
O=C(N[C@H](CO)c1ccccc1)c1ccc(-c2c[nH]c3nccc(C(F)(F)F)c23)s1 [TCMDC-143254] | 43.4 µM | -0,8163 | 0,78 | 45,94% | 35,87% | – | – | – | – | –
Cc1c([N+](=O)[O-])c(C(=O)Nc2sc3c(c2C#N)CCC(C)C3)nn1C (stereo not shown) [TCMDC-143155] | – | – | 0,23 | 44,57% | 10,36% | – | – | – | – | –
CN(C)S(=O)(=O)c1ccc(Cl)c(C(=O)Nc2nc(-c3ccccn3)cs2)c1 [TCMDC-143265] | 44.2 µM | -2,036 | 0,40 | 59,46% | 23,62% | – | – | – | – | –
N#Cc1cc([N+](=O)[O-])ccc1NC1CCCCCC1 [TCMDC-143143] | 21.8 µM | -1,466 | 1,61 | 41,27% | 66,27% | – | – | – | – | –
CC(=O)Nc1cccc(Nc2ncnc3nc[nH]c23)c1 [TCMDC-143399] | – | – | 0,19 | 43,27% | 8,15% | – | – | – | – | –
Cl.Cl.O=c1cc(NCCCNCc2cc(C(F)(F)F)cs2)[nH]c2ccccc12 [TCMDC-143645] | 20.8 µM | -1,127 | 1,27 | 42,78% | 54,13% | – | – | – | – | –
Cl.Cl.O=c1ccc2ccc(F)c3c2n1C[C@H]3CN1CCN(CC(O)c2cc3c(cn2)OCS3)CC1 (stereo partly shown) [TCMDC-143158] | 27.6 µM | -1,014 | 1,19 | 44,84% | 53,51% | – | – | – | – | –
Cc1c(Nc2cc(C3CC3)n[nH]2)ccc(C#N)c1Cl.O=C(O)C(F)(F)F [TCMDC-143454] | > 60 µM | – | 0,63 | 52,66% | 33,23% | – | – | – | – | –
